The source of these data is PMC10439158, “The net electrostatic potential and hydration of ABCG2 affect substrate transport” (Nature Communications, 2023).

The target of series [1] is T1, ABCG2 (Homo sapiens, UniProt Q9UNQ0).
T1 sequence (Q9UNQ0 1-655): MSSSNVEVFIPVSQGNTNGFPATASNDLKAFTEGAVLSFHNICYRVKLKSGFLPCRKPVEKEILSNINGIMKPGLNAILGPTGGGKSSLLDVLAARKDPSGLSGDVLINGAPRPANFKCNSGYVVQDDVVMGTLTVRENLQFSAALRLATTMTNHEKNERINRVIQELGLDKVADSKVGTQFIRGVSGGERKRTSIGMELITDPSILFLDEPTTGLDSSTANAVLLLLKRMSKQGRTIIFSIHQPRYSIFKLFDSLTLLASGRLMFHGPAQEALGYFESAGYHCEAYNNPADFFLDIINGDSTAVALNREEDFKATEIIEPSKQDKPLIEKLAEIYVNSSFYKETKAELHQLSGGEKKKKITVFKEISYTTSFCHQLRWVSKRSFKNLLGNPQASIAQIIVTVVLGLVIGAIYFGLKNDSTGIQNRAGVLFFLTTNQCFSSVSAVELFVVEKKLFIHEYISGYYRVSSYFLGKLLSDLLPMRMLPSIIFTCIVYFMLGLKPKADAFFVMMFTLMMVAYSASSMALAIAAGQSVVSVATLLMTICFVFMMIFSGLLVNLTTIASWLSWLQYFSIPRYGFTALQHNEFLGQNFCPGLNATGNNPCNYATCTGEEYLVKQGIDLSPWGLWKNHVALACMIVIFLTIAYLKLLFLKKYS
Description: cell-based. The note with it: 0.5 uM Hoechst 33342 substrate, 2 h, 37 °C; read-out: IC50 for transport inhibition in WT. Details: full-length ABCG2-WT in MEF cells; species or system Abcg2-KO MEFs expressing human ABCG2-WT; Inhibition of ABCG2-mediated Hoechst 33342 efflux; intracellular Hoechst 33342 fluorescence accumulation, normalized to vector control. Here is the method: The intracellular accumulation of fluorescent Hoechst 33342, pheophorbide a, chlorin e6, and purpurin 18, ABCG2 substrates, was used to determine the function of ABCG2. […] Thereafter, the medium was removed, and cells were washed twice with 200 μL ice-cold PBS and the fluorescence of Hoechst 33342 was then quantitatively determined with a Synergy H4 microplate reader (BioTek, Winooski, VT, USA) at an excitation wavelength of 355 nm and an emission wavelength of 460 nm. The accumulation of Hoechst 33342 was normalized to protein concentration as determined using the BCA Protein Assay Kit (Pierce, Rockford, IL, USA). The data were normalized by the proportion accumulated relative (%) to vector control. For the time-dependent Hoechst 33342 accumulation assay, 10 μM Hoechst 33342 was treated for different time periods (0.5, 1, 1.5, 2, 5, 10, 20, 30, 60, and 90 min). Relative intracellular Hoechst 33342 levels in the MEFs were normalized to vector control at 90 min. For the other fluorescent substrate accumulation assay, 0.5 μM pheophorbide a, 5 μM chlorin e6, or 5 μM purpurin 18 were treated for 1 h at 37 °C in the dark. The intracellular accumulation of pheophorbide a, purpurin 18, or chlorin e6 was measured at an excitation wavelength of 405 nm and an emission wavelength of 667 nm. […] Thereafter, the medium was removed and cells were washed twice with 1 mL ice-cold PBS. […] The total radioactivity was measured by liqu Apparent EC50 and IC50 values were calculated from dose-response data using nonlinear regression analysis. All experiments were independently repeated at least three times. […] Non-polar residues are grey, polar residues are green, and acidic residues are red.

In series [2] the target is T1, ABCG2. Description: isothermal shift assay on membranes; Hoechst […] transport inhibition; 5D3 shift; disulfide crosslinking. It counts as cell-based. The arrangement: full-length ABCG2-WT in membrane vesicles / MEF cells.
In series [3] the target is T1, ABCG2. In kind it is cell-based. The arrangement: full-length ABCG2-WT in membrane vesicles / MEF cells.
In series [4] the target is T1, ABCG2. Description: cell-based. The arrangement: full-length ABCG2-WT in MEF cells; species or system MEF (mouse embryonic fibroblasts) expressing human ABCG2-WT; Inhibition of ABCG2-mediated Hoechst 33342 transport; intracellular Hoechst 33342 fluorescence accumulation. The note with it: ABCG2-WT, 0.5 uM Hoechst 33342; read-out: Hoechst 33342 transport inhibition IC50. How it is done: The intracellular accumulation of fluorescent Hoechst 33342, pheophorbide a, chlorin e6, and purpurin 18, ABCG2 substrates, was used to determine the function of ABCG2. For Hoechst 33342 accumulation assay, MEFs were seeded into a 96-well black clear bottom plate (Corning #3603) at 20,000 cells/well and 0.5 μM Hoechst 33342, and either [compound left out] or the test inhibitor (0.002–10 μM) were added to the culture medium followed by incubation for 2 h at 37 °C in the dark. Thereafter, the medium was removed, and cells were washed twice with 200 μL ice-cold PBS and the fluorescence of Hoechst 33342 was then quantitatively determined with a Synergy H4 microplate reader (BioTek, Winooski, VT, USA) at an excitation wavelength of 355 nm and an emission wavelength of 460 nm. The accumulation of Hoechst 33342 was normalized to protein concentration as determined using the BCA Protein Assay Kit (Pierce, Rockford, IL, USA). […] The intracellular accumulation of pheophorbide a, purpurin 18, or chlorin e6 was measured at an excitation wavelength of 405 nm and an emission wavelength of 667 nm. […] The total radioactivity was measured by liqu Fig. 4 N436A substitution affects inhibitor interaction. a–d Representative snapshots from MDS of tariquidar interacting with ABCG2. a ABCG2-WT with residues within 4 Å of tariquidar are in surface representation. […]

Like-named read-outs stand apart in the source and are kept apart here.

The IC50 is the point on the concentration scale where inhibition reaches its midpoint.

As for `CS(=O)(=O)CCNCc1ccc(-c2ccc3ncnc(Nc4ccc(OCc5cccc(F)c5)c(Cl)c4)c3c2)o1` [lapatinib], in series [1], the IC50 was 50 nM. For the same compound, the “isothermal shift assay on membranes; Hoechst 33342 transport inhibition; 5D3 shi” value in series [2] was “ABCG2 inhibitors, Ko143, tariquidar, and lapatinib, strongly and dose-dependently thermally stabilized ABCG2-WT”.
Consider `COc1cc2c(cc1OC)CN(CCc1ccc(NC(=O)c3cc(OC)c(OC)cc3NC(=O)c3cnc4ccccc4c3)cc1)CC2` [tariquidar], for which the “isothermal shift assay on membranes; Hoechst 33342 transport inhibition; 5D3 shi” value in series [3] was “ABCG2 inhibitors, Ko143, tariquidar, and lapatinib, strongly and dose-dependently thermally stabilized ABCG2-WT”. In addition, the IC50 in series [4] stood at 80 nM.
